Molecules are shown by their SMILES.

Drawing on BindingDB's records for doi:10.1021/jm000496v (Welfide, 2001), this text covers Ki for 1 compound.

The test addresses Chymotrypsinogen A (Bos taurus) (UniProt P00766). As to the kind of experiment: Inhibitory activity against alpha chymotrypsin from bovine pancreas.

As usually defined, the Ki is a dissociation constant, usually derived from enzyme kinetics or from competition with a known ligand. Lower therefore signals tighter binding. For the compound `Nc1cnc(-c2ccc(F)cc2)n(CC(=O)NC(Cc2ccccc2)C(=O)c2nc3cc(-c4ccccc4)ccc3o2)c1=O` (stereo unspecified) [2-[5-Amino-2-(4-fluoro-phenyl)-6-oxo-6H-pyrimidin-1-yl]-N-[1-benzyl-2-oxo-2-(5-phenyl-benzooxazol-2-yl)-ethyl]-acetamide], the affinity, expressed as Ki, was 1630 nM.
